Data from ChEMBL document CHEMBL1151171, “New biologically active triterpenoid saponins from Scabiosa tschiliensis” (J Nat Prod, 2004).
Activity calls are given as the source filed them. The rule behind the calls is not given here.

What was measured:
[1] = biological target: T1, Pancreatic triacylglycerol lipase (Homo sapiens) (UniProt P16233); test: Inhibition of pancreatic lipase assessed as effect on oleic acid release from triolein at 1 mg/mL relative to control
T1 sequence (whole entry): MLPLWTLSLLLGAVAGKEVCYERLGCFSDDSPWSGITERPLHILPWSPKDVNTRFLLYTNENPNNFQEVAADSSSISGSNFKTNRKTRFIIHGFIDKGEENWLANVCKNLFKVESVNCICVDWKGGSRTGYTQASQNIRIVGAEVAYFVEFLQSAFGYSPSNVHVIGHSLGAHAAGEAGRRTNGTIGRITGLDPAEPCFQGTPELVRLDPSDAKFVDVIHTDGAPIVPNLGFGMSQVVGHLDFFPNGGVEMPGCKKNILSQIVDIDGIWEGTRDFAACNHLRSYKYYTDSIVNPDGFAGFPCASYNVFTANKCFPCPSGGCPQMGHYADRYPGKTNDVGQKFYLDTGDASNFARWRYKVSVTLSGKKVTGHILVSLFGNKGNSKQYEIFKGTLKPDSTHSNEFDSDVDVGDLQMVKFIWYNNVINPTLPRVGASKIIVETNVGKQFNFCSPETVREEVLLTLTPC

[2] = biological target: T1, Pancreatic triacylglycerol lipase (Homo sapiens); test: Inhibition of pancreatic lipase assessed as effect on oleic acid release from triolein relative to control
[3] = biological target: T1, Pancreatic triacylglycerol lipase (Homo sapiens); test: Inhibition of pancreatic lipase assessed as effect on oleic acid release from triolein at 0.12 mg/mL relative to control
[4] = biological target: T1, Pancreatic triacylglycerol lipase (Homo sapiens); test: Inhibition of pancreatic lipase assessed as effect on oleic acid release from triolein at 0.005 mg/mL relative to control

| SMILES | Activity [1] | further results |
| --- | --- | --- |
| C[C@@H]1O[C@@H](O[C@H]2[C@H](O[C@H]3CC[C@]4(C)[C@H]5CC=C6[C@H]7[C@](C(=O)O[C@@H]8O[C@H](CO[C@@H]9O[C@H](CO)[C@@H](O)[C@H](O)[C@H]9O)[C@@H](O)[C@H](O)[C@H]8O)(CC[C@@H](C)[C@@]7(C)O)CC[C@@]6(C)[C@]5(C)CC[C@H]4C3(C)C)OC[C@H](O)[C@@H]2O)[C@H](O)[C@H](O[C@@H]2O[C@H](CO)[C@@H](O)[C@H](O)[C@H]2O)[C@H]1O | Active | – |
| C[C@@H]1O[C@@H](O[C@H]2[C@H](O[C@H]3CC[C@]4(C)[C@H]5CC=C6[C@@H]7CC(C)(C)CC[C@]7(C(=O)O[C@@H]7O[C@H](CO[C@@H]8O[C@H](CO)[C@@H](O)[C@H](O)[C@H]8O)[C@@H](O)[C@H](O)[C@H]7O)CC[C@@]6(C)[C@]5(C)CC[C@H]4C3(C)C)OC[C@@H](O)[C@@H]2O)[C@H](O)[C@H](O[C@@H]2O[C@H](CO)[C@@H](O[C@@H]3O[C@H](CO)[C@@H](O)[C@H](O)[C@H]3O)[C@H](O)[C@H]2O)[C@H]1O | Active | – |
| C[C@@H]1O[C@@H](O[C@H]2[C@H](O[C@H]3CC[C@]4(C)[C@H]5CC=C6[C@@H]7CC(C)(C)CC[C@]7(C(=O)O)CC[C@@]6(C)[C@]5(C)CC[C@H]4C3(C)C)OC[C@H](O)[C@@H]2O)[C@H](O)[C@H](O[C@@H]2OC[C@@H](O[C@@H]3O[C@H](CO)[C@@H](O)[C@H](O)[C@H]3O)[C@H](O)[C@H]2O)[C@H]1O | – | Activity [2]: Active; Activity [3]: Active |
| C[C@@H]1O[C@@H](O[C@H]2[C@H](O[C@H]3CC[C@]4(C)[C@H]5CC=C6[C@@H]7CC(C)(C)CC[C@]7(C(=O)O[C@@H]7O[C@H](CO[C@@H]8O[C@H](CO)[C@@H](O)[C@H](O)[C@H]8O)[C@@H](O)[C@H](O)[C@H]7O)CC[C@@]6(C)[C@]5(C)CC[C@H]4C3(C)C)OC[C@@H](O)[C@@H]2O)[C@H](O)[C@H](O[C@@H]2O[C@H](CO)[C@@H](O)[C@H](O)[C@H]2O)[C@H]1O | Active | – |
| CCCCCCCCCCC[C@@H](C[C@@H]1OC(=O)[C@H]1CCCCCC)OC(=O)[C@H](CC(C)C)NC=O | – | Activity [4]: Active |
| C[C@@H]1O[C@@H](O[C@H]2[C@H](O[C@H]3CC[C@]4(C)[C@H]5CC=C6[C@@H]7CC(C)(C)CC[C@]7(C(=O)O[C@@H]7O[C@H](CO[C@@H]8O[C@H](CO)[C@@H](O)[C@H](O)[C@H]8O)[C@@H](O)[C@H](O)[C@H]7O)CC[C@@]6(C)[C@]5(C)CC[C@H]4C3(C)C)OC[C@@H](O)[C@@H]2O)[C@H](O)[C@H](O[C@@H]2OC[C@@H](O)[C@H](O)[C@H]2O)[C@H]1O | Active | – |
| C[C@@H]1O[C@@H](O[C@H]2[C@H](O[C@H]3CC[C@]4(C)[C@H]5CC=C6[C@@H]7CC(C)(C)CC[C@]7(C(=O)O[C@@H]7O[C@H](CO[C@@H]8O[C@H](CO)[C@@H](O)[C@H](O)[C@H]8O)[C@@H](O)[C@H](O)[C@H]7O)CC[C@@]6(C)[C@]5(C)CC[C@H]4C3(C)C)OC[C@@H](O)[C@@H]2O)[C@H](O)[C@H](O[C@@H]2OC[C@@H](O[C@@H]3O[C@H](CO)[C@@H](O[C@@H]4OC[C@@H](O)[C@H](O)[C@H]4O)[C@H](O)[C@H]3O)[C@H](O)[C@H]2O)[C@H]1O | Active | – |
| C[C@@H]1O[C@@H](O[C@H]2[C@H](O[C@H]3CC[C@]4(C)[C@H]5CC=C6[C@@H]7CC(C)(C)CC[C@]7(C(=O)O[C@@H]7O[C@H](CO[C@@H]8O[C@H](CO)[C@@H](O)[C@H](O)[C@H]8O)[C@@H](O)[C@H](O)[C@H]7O)CC[C@@]6(C)[C@]5(C)CC[C@H]4C3(C)C)OC[C@@H](O)[C@@H]2O)[C@H](O)[C@H](O[C@@H]2OC[C@@H](O[C@@H]3O[C@H](CO)[C@@H](O)[C@H](O)[C@H]3O)[C@H](O)[C@H]2O)[C@H]1O | Active | – |
